Test results from ChEMBL document CHEMBL1127849, “Benzisoxazole- and benzisothiazole-3-carboxamides as potential atypical antipsychotic agents” (J Med Chem, 1994).
Blank lines part the entries; values can stand above or below the compound they belong to.

Legend:
[1] = test system: Mus musculus; assay: In vivo effective dose for inhibition of apomorphine-induced climbing in mice after intraperitoneal administration at a dose 20 mg/kg; format: functional; conditions: ip
[2] = molecular target: T1, Adrenergic receptor alpha-1 (Rattus norvegicus, UniProt P15823+P23944+P43140); assay: Its affinity towards alpha-1 receptor using [3H]WB-4101 as radioligand in whole brain minus cerebellum; format: tissue-based
T1 sequence (P15823 whole entry): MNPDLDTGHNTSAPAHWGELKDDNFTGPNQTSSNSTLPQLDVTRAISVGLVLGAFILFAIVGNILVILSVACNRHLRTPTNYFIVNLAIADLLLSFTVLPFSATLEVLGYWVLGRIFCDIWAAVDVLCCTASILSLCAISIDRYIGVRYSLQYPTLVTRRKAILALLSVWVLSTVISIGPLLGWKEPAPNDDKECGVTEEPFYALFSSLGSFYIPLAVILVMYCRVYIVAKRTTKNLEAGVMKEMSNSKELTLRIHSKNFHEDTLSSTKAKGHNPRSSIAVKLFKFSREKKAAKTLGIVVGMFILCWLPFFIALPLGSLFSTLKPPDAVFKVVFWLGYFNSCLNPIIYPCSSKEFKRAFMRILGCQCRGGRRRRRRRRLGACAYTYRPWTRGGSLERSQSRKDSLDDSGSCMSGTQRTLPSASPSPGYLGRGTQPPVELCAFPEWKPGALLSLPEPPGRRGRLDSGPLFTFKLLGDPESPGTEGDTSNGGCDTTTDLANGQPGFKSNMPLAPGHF
T1 sequence (P23944 whole entry): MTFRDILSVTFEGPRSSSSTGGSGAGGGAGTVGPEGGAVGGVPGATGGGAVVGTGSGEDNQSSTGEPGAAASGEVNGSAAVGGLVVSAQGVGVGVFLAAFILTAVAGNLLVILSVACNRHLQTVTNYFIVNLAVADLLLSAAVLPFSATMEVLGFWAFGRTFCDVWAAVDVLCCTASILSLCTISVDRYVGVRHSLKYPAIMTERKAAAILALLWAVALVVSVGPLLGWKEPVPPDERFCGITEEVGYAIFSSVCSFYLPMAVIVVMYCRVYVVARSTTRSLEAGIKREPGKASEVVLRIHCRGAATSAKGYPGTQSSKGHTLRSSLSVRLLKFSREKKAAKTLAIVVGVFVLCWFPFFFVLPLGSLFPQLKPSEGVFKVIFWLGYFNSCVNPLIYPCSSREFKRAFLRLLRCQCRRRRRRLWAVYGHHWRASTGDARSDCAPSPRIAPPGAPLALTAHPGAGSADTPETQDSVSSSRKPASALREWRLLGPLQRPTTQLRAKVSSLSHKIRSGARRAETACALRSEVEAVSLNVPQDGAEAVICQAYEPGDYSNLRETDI
T1 sequence (P43140 whole entry): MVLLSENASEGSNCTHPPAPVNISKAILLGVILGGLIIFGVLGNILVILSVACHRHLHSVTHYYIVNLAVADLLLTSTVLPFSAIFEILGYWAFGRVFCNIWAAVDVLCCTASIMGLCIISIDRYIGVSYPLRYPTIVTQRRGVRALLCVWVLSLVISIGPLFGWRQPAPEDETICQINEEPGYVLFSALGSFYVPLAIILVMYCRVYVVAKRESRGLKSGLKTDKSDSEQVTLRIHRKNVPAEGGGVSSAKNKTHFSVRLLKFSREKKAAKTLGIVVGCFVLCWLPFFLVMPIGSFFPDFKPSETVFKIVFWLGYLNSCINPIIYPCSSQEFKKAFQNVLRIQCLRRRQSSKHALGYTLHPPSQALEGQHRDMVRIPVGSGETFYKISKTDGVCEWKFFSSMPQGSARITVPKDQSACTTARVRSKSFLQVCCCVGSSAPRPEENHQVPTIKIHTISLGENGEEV

[3] = molecular target: 5-hydroxytryptamine receptor 2A (Rattus norvegicus, UniProt P14842); assay: In vitro affinity towards 5-hydroxytryptamine 2A receptor using [3H]spiroperidol as radioligand in cortex
[4] = molecular target: T2, 5-hydroxytryptamine receptor 1A (Rattus norvegicus, UniProt P19327); assay: In vitro affinity towards 5-hydroxytryptamine 1A receptor using [3H]8-OH-DPAT as radioligand in hippocampus; format: tissue-based
T2 sequence (P19327 whole entry): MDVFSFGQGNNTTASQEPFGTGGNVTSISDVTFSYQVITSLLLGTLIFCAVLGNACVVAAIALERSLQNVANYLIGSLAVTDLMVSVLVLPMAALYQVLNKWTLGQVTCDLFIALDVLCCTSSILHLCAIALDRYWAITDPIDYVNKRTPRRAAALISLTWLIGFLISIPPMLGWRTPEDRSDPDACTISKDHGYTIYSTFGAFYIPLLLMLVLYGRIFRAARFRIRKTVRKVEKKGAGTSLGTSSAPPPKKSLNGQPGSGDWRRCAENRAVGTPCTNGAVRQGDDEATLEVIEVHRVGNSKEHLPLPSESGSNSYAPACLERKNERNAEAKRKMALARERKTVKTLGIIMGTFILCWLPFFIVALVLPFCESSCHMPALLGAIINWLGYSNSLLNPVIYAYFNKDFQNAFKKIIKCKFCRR

[5] = test system: Rattus norvegicus; assay: Compound was evaluated in vivo for its antipsychotic activity for inhibition of apomorphine-induced stereotypy in rat; format: functional
[6] = test system: Rattus norvegicus; assay: Compound was evaluated in vivo for its antipsychotic activity for inhibition of apomorphine-induced stereotypy in rat after intraperitoneal administration of a dose of 40 mg/kg; format: functional; conditions: ip
[7] = test system: Rattus norvegicus; assay: Compound was evaluated in vivo for its antipsychotic activity for inhibition of apomorphine-induced stereotypy in rat after intraperitoneal administration of a dose of 10 mg/kg; format: functional; conditions: ip
[8] = test system: Rattus norvegicus; assay: Compound was evaluated in vivo for its antipsychotic activity for inhibition of apomorphine-induced stereotypy in rat after intraperitoneal administration of a dose of 40 mg/kg value represented as percent inhibition; format: functional; conditions: ip
[9] = test system: Rattus norvegicus; assay: Compound was evaluated in vivo for its antipsychotic activity for inhibition of apomorphine-induced stereotypy in rat after intraperitoneal administration of a dose of 13 mg/kg; format: functional; conditions: ip

Chain of 5-hydroxytryptamine receptor 2A (P14842 whole entry): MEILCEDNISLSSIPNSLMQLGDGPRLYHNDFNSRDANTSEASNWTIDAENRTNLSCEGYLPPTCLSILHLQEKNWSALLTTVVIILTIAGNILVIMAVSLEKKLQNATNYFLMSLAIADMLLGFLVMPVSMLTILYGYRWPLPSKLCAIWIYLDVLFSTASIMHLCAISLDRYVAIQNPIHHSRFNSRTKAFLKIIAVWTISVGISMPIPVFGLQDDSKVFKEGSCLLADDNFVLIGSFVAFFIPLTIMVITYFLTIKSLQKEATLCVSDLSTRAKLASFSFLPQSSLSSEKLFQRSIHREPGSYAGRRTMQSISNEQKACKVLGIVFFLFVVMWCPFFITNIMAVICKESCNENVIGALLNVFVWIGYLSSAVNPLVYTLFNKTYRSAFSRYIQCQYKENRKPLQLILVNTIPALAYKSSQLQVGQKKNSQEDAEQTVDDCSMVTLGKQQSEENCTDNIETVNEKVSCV

IC50 [2]: 0.239 µM | IC50 [3]: 0.215 µM | IC50 [4]: 3.45 µM
SMILES: O=C(NCCN1CCC(c2noc3cc(Cl)ccc23)CC1)c1nsc2ccccc12
ED50 [1]: > 20 mg/kg

IC50 [2]: 2.57 µM | IC50 [4]: 1.88 µM
SMILES: O=C(NCCN1CCN(Cc2ccccc2)CC1)c1nsc2ccccc12
ED50 [1]: > 20 mg/kg

IC50 [2]: 0.0157 µM | IC50 [3]: 0.017 µM | IC50 [4]: 0.92 µM
SMILES: O=C(NCCN1CCC(C(=O)c2ccc(F)cc2)CC1)c1nsc2ccccc12
ED50 [1]: 3.64 mg/kg | ED50 [5]: 25.7 mg/kg

IC50 [2]: 0.174 µM | IC50 [3]: 0.013 µM | IC50 [4]: 0.16 µM
SMILES: CN(CCCCN1CCC(c2noc3cc(F)ccc23)CC1)C(=O)c1nsc2ccccc12
inhibition in vivo at 10 mg/kg [7]: 67%

IC50 [2]: 0.0064 µM | IC50 [3]: 0.724 µM | IC50 [4]: 0.0023 µM
SMILES: COc1ccccc1N1CCN(CCCCNC(=O)c2nsc3ccccc23)CC1
ED50 [1]: 7.24 mg/kg | inhibition in vivo at 40 mg/kg [8]: 83%

IC50 [2]: 0.0815 µM | IC50 [3]: 0.726 µM | IC50 [4]: 0.0516 µM
SMILES: O=C(NCCN1CCN(c2cccc(Cl)c2)CC1)c1nsc2ccccc12
ED50 [1]: > 20 mg/kg

IC50 [2]: 0.0398 µM | IC50 [3]: 0.641 µM
SMILES: O=C(NCCN1CCC(n2c(O)nc3ccccc32)CC1)c1nsc2ccccc12
ED50 [1]: > 20 mg/kg

IC50 [2]: 0.019 µM | IC50 [3]: 0.475 µM | IC50 [4]: 0.098 µM
SMILES: O=C(NCCN1CCN(c2nsc3ccccc23)CC1)c1nsc2ccccc12
ED50 [1]: > 20 mg/kg

IC50 [2]: 0.0032 µM | IC50 [3]: 0.0302 µM | IC50 [4]: 0.339 µM
SMILES: CN(CCCCN1CCC(C(=O)c2ccc(F)cc2)CC1)C(=O)c1nsc2ccccc12
ED50 [1]: 8.2 mg/kg | inhibition in vivo at 40 mg/kg [6]: 60%

IC50 [2]: 0.0183 µM | IC50 [3]: 3.11 µM | IC50 [4]: 0.0847 µM
SMILES: COc1ccccc1N1CCN(CCCNC(=O)c2nsc3ccccc23)CC1
ED50 [1]: 13 mg/kg | inhibition in vivo at 40 mg/kg [6]: 17%

IC50 [2]: 0.0063 µM | IC50 [3]: 0.232 µM | IC50 [4]: 0.366 µM
SMILES: CN(CCCCN1CCN(c2csc3cc(F)ccc23)CC1)C(=O)c1nsc2ccccc12
ED50 [5]: 33 mg/kg

IC50 [2]: 0.0938 µM | IC50 [3]: 0.115 µM | IC50 [4]: 3.72 µM
SMILES: O=C(NCCCN1CCC(c2noc3cc(Cl)ccc23)CC1)c1nsc2ccccc12
ED50 [1]: > 20 mg/kg

IC50 [2]: 0.0753 µM | IC50 [3]: 0.051 µM | IC50 [4]: 2.5 µM
SMILES: CN(CCN1CCC(C(=O)c2ccc(F)cc2)CC1)C(=O)c1nsc2ccccc12
ED50 [1]: 8 mg/kg

IC50 [2]: 0.1082 µM | IC50 [3]: 0.027 µM | IC50 [4]: 1.79 µM
SMILES: CN(CCN1CCC(C(=O)c2ccc(F)cc2)CC1)C(=O)c1noc2ccccc12
ED50 [1]: 13.4 mg/kg

IC50 [2]: 0.124 µM | IC50 [3]: 0.29 µM | IC50 [4]: 2.3 µM
SMILES: CC(C)N(CCCN1CCC(C(=O)c2ccc(F)cc2)CC1)C(=O)c1noc2ccccc12
ED50 [1]: 20.2 mg/kg

The next lines start with the compound.

SMILES: CN1CCN(CCNC(=O)c2nsc3ccccc23)CC1
ED50 [1]: > 20 mg/kg | IC50 [2]: > 10 µM | IC50 [3]: > 10 µM | IC50 [4]: > 10 µM

SMILES: COc1ccccc1N1CCN(CCCCN(C)C(=O)c2nsc3ccccc23)CC1
ED50 [1]: 9.61 mg/kg | IC50 [2]: 0.0033 µM | IC50 [4]: 0.004 µM | inhibition in vivo at 40 mg/kg [6]: 100%

SMILES: COc1ccccc1N1CCN(CCNC(=O)c2nsc3ccccc23)CC1
IC50 [2]: 0.0041 µM | IC50 [3]: 0.55 µM | IC50 [4]: 0.0039 µM | ED50 [5]: 51.8 mg/kg

SMILES: O=C(NCCN1CCN(c2csc3cc(F)ccc23)CC1)c1noc2ccccc12
IC50 [2]: > 10 µM | IC50 [3]: 0.309 µM | IC50 [4]: 1.04 µM | inhibition in vivo at 40 mg/kg [6]: 17%

SMILES: CN(CCCN1CCC(C(=O)c2ccc(F)cc2)CC1)C(=O)c1noc2ccccc12
ED50 [1]: > 20 mg/kg | IC50 [2]: 0.043 µM | IC50 [3]: 0.123 µM | IC50 [4]: 6.65 µM

SMILES: CC(C)N(CCN1CCC(c2noc3cc(F)ccc23)CC1)C(=O)c1noc2ccccc12
ED50 [1]: 1.3 mg/kg | IC50 [2]: 0.0055 µM | IC50 [3]: 0.0297 µM

SMILES: COc1ccccc1N1CCN(CCNC(=O)c2noc3ccccc23)CC1
ED50 [1]: > 20 mg/kg | IC50 [2]: 0.0021 µM | IC50 [3]: 0.391 µM | IC50 [4]: 0.021 µM

SMILES: CN(CCCN1CCC(C(=O)c2ccc(F)cc2)CC1)C(=O)c1nsc2ccccc12
ED50 [1]: 7.7 mg/kg | IC50 [2]: 0.00611 µM | IC50 [3]: 0.068 µM | IC50 [4]: 4.67 µM

SMILES: COc1ccccc1N1CCN(CCCN(C)C(=O)c2nsc3ccccc23)CC1
ED50 [1]: > 20 mg/kg | IC50 [2]: 0.0107 µM | IC50 [3]: 1.65 µM | IC50 [4]: 0.149 µM

SMILES: CN(CCN1CCC(c2noc3cc(F)ccc23)CC1)C(=O)c1noc2ccccc12
ED50 [1]: 1.3 mg/kg | IC50 [2]: 0.104 µM | IC50 [3]: 0.0176 µM | IC50 [4]: 0.44 µM | inhibition in vivo at 13 mg/kg [9]: 33%

SMILES: CN(CCCCN1CCN(c2csc3cc(F)ccc23)CC1)C(=O)c1noc2ccccc12
IC50 [2]: 0.0032 µM | IC50 [3]: 0.188 µM | IC50 [4]: 0.128 µM | ED50 [5]: 52 mg/kg

SMILES: CN1CCN(C2=Nc3cc(Cl)ccc3Nc3ccccc32)CC1 [CLOZAPINE]
inhibition in vivo at 40 mg/kg [6]: 33%

SMILES: Cc1nc2n(c(=O)c1CCN1CCC(c3noc4cc(F)ccc34)CC1)CCCC2 [RISPERIDONE]
ED50 [1]: 0.062 mg/kg | ED50 [5]: 3.2 mg/kg
